The values below are quoted from earlier work in patent US10328067B2, “Pharmaceutical oral dose formulation and composition of matter” (priority 2016, dated 2019).

Each structure is given as a SMILES string.

For the series the following is noted: result in words; p-glycoprotein substrate.

On to `CC[C@]1(O)C[C@@H]2CN(CCc3c([nH]c4ccccc34)[C@@](C(=O)OC)(c3cc4c(cc3OC)N(C)[C@H]3[C@@](O)(C(=O)OC)[C@H](OC(C)=O)[C@]5(CC)C=CCN6CC[C@]43[C@@H]65)C2)C1` [vinblastine], for which the intestinal absorption result is listed as “negligible intestinal absorption”.
